Like-named read-outs stand apart in the source and are kept apart here.
What was measured:
human Chk2 kinase [1] = target: T1, human Chk2 kinase (Homo sapiens, UniProt O96017); test: biochemical
RSK1 = target: T2, RSK1 (Homo sapiens, UniProt Q15418); test: RSK1-4 kinase assay (Eurofins KinaseProfiler, radiometric): RSK1; format: biochemical; settings: approximately ATP Km
T2 construct: purchased Eurofins (KinaseProfiler service)
Description: (§1) The radiometric kinase activity assays were run at approximately the ATP Km for each kinase and the IC50 data is shown in Table 24.

RSK3 = target: T3, RSK3 (Homo sapiens, UniProt Q15349); test: RSK1-4 kinase assay (Eurofins KinaseProfiler, radiometric): RSK3; format: biochemical; settings: approximately ATP Km
T3 construct: purchased Eurofins (KinaseProfiler service)
T3 sequence (Q15349 whole entry): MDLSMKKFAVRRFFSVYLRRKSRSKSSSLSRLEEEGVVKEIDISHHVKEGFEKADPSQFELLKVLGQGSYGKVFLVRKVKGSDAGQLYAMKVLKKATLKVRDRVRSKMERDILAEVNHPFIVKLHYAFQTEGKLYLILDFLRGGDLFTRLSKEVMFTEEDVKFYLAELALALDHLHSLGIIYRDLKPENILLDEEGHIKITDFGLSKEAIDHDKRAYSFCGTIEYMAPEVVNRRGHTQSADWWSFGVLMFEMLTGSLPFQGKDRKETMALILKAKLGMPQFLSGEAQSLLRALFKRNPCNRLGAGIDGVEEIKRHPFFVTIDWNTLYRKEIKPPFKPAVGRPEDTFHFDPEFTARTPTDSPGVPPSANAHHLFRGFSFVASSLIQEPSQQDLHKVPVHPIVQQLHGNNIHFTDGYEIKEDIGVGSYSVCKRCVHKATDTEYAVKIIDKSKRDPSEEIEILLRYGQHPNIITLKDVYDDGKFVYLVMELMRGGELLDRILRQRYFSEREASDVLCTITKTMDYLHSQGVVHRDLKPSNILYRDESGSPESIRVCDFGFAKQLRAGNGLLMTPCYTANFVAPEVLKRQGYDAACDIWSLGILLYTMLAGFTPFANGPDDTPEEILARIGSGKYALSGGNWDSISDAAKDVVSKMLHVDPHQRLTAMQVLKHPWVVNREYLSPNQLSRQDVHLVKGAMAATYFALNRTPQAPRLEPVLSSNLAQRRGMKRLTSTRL
Description: as §1

[2] = tested on: pChk1(Ser296) in SW620 cells; test: pChk1(Ser296) sandwich ELISA, cell-based on-target kinase activity; settings: Homo sapiens, read-out: SW620 pIC50 (converted)
Method: ELISA assays were performed as per the manufacturer's protocol. […] Selected compounds of the invention were tested as a 8-point concentration response up to a maximum concentration of either 1 μM, 3 μM or 10 μM. The percent (%) effect i.e. inhibition at each concentration of compound was calculated based on, and relative to, the amount of inhibition produced in the vehicle control and inhibited control wells contained within each plate.

RSK2 = target: T4, RSK2 (Homo sapiens, UniProt P51812); test: RSK1-4 kinase assay (Eurofins KinaseProfiler, radiometric): RSK2; format: biochemical; settings: approximately ATP Km
T4 construct: purchased Eurofins (KinaseProfiler service)
T4 sequence (P51812 whole entry): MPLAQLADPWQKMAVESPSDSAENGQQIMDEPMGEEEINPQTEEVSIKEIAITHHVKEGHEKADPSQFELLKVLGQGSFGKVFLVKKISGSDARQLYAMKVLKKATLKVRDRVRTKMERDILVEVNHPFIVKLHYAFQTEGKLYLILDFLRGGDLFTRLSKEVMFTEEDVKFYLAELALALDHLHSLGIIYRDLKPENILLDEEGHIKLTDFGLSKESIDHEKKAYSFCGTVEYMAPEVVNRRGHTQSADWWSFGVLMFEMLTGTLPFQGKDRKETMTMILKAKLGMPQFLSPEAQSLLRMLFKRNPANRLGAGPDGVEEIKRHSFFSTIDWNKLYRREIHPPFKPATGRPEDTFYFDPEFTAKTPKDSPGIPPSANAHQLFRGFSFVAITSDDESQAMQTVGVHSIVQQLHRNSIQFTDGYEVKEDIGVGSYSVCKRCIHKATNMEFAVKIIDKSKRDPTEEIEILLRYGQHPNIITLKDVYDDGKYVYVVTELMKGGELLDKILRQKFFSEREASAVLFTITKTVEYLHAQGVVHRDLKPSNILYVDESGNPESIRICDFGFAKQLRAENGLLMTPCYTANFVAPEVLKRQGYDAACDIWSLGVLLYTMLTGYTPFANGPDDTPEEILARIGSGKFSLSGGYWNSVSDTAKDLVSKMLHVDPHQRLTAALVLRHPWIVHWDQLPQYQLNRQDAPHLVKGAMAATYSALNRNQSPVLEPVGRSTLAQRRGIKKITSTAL
Description: as §1

human Chk1 kinase [3] = target: T5, human Chk1 kinase (Homo sapiens, UniProt O14757); test: biochemical
T5 sequence (O14757 1-476): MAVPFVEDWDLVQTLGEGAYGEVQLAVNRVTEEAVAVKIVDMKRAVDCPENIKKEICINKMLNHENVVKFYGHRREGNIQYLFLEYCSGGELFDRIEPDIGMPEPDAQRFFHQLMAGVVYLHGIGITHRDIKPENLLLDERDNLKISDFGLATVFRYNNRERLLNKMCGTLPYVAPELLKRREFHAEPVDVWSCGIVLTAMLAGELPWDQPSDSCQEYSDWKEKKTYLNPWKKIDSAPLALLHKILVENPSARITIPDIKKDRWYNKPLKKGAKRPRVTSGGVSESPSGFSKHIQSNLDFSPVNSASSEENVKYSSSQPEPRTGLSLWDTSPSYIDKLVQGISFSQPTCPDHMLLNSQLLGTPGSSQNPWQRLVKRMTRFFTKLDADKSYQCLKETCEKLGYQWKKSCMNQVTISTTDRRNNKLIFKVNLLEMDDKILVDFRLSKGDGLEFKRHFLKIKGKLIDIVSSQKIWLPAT

GBM LN18 cells = test: In vitro cell viability assay (Cell Titre Glo, 72 hours); format: cell-based; settings: Homo sapiens, LN-18, read-out: LN18 pIC50 (converted)
Method: GBM LN18 cells were incubated with increasing concentrations of selected compounds of the invention for 72 hours prior to the measurement of ATP in metabolically viable cells with the Cell Titre® Glo Luminescent reagent. A 10-point concentration response curve up to a maximum concentration of 10 μM was tested.
The percent (%) effect i.e., inhibition at each concentration of compound was calculated based on, and relative to the amount of inhibition produced in the vehicle control and inhibited control wells contained within each plate.

[4] = tested on: 373 human wild-type kinases; test: Kinome selectivity, Eurofins KinaseProfiler kinase screen; format: biochemical; settings: panel of 373 human wild-type kinases, approximately ATP Km, top concentration 10 μM
Description: The radiometric kinase activity assays were run at approximately the ATP Km for each kinase.

RSK4 = target: T6, RSK4 (Homo sapiens, UniProt Q9UK32); test: RSK1-4 kinase assay (Eurofins KinaseProfiler, radiometric): RSK4; format: biochemical; settings: approximately ATP Km
T6 construct: purchased Eurofins (KinaseProfiler service)
T6 sequence (Q9UK32 whole entry): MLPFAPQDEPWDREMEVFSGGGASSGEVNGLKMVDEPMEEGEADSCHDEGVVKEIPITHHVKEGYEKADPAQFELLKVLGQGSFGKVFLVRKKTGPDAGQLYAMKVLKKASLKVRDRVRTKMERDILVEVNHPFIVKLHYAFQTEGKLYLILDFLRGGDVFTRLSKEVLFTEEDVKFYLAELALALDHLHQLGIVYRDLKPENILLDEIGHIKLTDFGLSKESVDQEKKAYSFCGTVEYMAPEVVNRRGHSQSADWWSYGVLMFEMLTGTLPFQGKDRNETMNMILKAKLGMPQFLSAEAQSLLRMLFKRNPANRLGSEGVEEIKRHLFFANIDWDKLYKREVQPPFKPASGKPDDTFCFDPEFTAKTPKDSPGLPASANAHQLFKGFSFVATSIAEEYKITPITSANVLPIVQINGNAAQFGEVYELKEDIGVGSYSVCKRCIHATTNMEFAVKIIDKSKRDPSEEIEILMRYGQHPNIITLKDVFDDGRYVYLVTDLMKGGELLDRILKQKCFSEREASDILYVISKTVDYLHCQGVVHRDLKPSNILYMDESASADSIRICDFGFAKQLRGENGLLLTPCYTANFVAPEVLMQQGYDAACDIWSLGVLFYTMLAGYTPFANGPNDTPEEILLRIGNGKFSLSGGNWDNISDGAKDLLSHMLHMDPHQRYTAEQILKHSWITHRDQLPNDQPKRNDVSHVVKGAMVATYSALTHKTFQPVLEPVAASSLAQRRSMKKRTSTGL
Description: as §1

human Chk2 kinase [5] = target: T1, human Chk2 kinase
BCRP = target: T7, BCRP (Homo sapiens, UniProt Q9UNQ0); test: in vitro; settings: dog, pH 7.4
T7 sequence (Q9UNQ0 1-655): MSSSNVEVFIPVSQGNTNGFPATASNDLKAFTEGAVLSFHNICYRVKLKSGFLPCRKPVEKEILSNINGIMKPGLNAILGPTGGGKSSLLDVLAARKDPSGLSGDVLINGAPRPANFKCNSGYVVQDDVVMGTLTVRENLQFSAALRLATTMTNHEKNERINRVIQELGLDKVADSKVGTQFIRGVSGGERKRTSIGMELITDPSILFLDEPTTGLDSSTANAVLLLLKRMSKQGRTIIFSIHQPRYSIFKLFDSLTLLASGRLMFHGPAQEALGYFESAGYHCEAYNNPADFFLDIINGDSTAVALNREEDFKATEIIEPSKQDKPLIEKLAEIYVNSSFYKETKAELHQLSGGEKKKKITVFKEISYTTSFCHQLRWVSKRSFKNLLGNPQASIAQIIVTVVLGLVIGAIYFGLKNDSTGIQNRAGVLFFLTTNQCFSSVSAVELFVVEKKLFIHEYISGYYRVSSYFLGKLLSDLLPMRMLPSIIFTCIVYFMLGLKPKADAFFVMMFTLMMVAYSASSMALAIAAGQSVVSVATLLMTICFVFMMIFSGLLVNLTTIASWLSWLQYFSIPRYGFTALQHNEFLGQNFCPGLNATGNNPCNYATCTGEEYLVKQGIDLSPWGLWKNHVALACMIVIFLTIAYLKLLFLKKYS

in vitro = settings: dog, MDCK, pH 7.4
[6] = target: P-glycoprotein (P-gp, MDR1) (Homo sapiens, UniProt P08183); test: in vitro; settings: dog, MDCK-MDR1, pH 7.4
Chain of P-glycoprotein (P-gp, MDR1) (P08183 whole entry): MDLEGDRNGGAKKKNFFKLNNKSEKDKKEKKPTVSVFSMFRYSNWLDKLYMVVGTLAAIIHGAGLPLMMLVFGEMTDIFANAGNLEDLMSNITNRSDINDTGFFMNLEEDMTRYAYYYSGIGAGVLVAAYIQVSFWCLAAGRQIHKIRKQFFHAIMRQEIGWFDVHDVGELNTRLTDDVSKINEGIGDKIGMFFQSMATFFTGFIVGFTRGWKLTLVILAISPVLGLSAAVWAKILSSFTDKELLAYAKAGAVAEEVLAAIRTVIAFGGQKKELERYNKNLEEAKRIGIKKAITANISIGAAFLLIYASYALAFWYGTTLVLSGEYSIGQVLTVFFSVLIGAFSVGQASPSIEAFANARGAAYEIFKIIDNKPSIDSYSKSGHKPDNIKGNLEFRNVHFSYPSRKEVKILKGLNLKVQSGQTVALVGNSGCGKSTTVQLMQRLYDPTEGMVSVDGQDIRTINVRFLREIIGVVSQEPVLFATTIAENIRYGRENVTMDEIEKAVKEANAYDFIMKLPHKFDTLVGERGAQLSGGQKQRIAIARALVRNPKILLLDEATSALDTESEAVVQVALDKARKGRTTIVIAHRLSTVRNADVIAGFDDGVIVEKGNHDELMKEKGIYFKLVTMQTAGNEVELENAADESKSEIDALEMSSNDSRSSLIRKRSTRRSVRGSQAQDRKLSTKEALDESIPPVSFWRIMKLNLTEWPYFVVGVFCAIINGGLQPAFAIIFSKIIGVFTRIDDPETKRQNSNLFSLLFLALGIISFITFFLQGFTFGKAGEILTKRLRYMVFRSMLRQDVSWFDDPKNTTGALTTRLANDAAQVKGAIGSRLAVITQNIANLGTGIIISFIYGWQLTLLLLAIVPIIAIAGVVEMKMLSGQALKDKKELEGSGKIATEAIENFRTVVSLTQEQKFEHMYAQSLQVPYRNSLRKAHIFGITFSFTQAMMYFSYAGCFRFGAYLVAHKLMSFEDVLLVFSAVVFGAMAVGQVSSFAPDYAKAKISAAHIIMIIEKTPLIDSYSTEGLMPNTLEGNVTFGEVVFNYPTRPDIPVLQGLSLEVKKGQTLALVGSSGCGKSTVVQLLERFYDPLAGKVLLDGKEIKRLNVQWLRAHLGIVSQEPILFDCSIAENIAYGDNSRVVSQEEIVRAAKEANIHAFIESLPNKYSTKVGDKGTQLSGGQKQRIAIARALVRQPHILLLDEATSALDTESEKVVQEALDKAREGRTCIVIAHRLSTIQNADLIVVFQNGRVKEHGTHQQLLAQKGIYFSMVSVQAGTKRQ

human Chk1 kinase [7] = target: T5, human Chk1 kinase; test: Human Chk1 HTRF (Homogeneous Time Resolved Fluorescence) enzyme assay; settings: 1 nM Chk-1, 30 μM ATP
[8] = Determination of CNS penetration in vivo, unbound brain to plasma ratio (Kpuu); settings: male, Sprague Dawley, rat, iv, 1 mg/kg
[9] = SW-620, neocarzinostatin 7.5 μM, 2 hours

T1 sequence (O96017 whole entry): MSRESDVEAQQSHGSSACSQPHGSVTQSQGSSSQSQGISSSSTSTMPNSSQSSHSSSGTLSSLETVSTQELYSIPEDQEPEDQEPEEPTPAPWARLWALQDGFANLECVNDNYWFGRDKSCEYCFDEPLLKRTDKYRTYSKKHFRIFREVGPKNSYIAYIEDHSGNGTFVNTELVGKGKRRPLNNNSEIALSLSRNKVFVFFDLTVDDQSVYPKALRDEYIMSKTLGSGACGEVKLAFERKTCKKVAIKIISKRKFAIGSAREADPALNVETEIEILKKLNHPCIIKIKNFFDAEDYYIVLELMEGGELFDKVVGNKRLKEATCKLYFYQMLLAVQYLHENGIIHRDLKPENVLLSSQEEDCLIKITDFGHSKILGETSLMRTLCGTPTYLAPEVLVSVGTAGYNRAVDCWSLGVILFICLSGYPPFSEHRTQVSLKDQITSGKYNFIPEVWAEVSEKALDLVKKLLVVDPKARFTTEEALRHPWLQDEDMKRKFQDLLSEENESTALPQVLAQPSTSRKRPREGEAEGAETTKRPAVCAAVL
T2 sequence (Q15418 whole entry): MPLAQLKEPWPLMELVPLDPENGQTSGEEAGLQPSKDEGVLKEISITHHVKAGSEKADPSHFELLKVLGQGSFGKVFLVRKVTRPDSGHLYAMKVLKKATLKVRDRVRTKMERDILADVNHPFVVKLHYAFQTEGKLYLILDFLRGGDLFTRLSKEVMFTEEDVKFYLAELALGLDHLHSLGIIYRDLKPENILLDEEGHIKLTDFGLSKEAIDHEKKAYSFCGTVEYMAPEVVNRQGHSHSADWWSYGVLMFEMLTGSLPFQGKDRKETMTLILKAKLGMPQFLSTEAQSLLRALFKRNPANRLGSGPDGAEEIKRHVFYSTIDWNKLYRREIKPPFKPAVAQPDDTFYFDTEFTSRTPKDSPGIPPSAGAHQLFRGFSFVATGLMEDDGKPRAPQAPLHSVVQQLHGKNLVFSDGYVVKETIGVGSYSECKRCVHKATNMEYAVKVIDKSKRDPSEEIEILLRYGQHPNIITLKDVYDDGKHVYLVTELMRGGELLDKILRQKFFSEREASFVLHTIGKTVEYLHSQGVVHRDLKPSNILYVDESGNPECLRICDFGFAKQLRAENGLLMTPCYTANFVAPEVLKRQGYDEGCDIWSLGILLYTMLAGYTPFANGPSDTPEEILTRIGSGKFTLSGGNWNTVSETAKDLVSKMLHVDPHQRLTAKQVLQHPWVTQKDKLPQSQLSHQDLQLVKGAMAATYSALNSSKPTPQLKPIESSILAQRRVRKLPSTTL

SMILES: CN[C@@H]1CCN(c2ccc(-n3cnc(Nc4cnc(C#N)cn4)c3)cc2)C1 [Example 155, (R)-5-((1-(4-(3-(Methylamino)pyrrolidin-1-yl)phenyl)-1H-imidazol-4-yl)amino)pyrazine-2-carbonitrile]
- IC50 (human Chk2 kinase [1]): 1000 to 10000 nM
- IC50 (RSK1): 3420 nM
- IC50 (RSK3): 822 nM
- IC50 ([2]; SW-620, 2 h, neocarzinostatin 7.5 μM): < 1000 nM
- IC50 (RSK2): 1120 nM
- IC50 (human Chk1 kinase [3]): < 10 nM
- IC50 (GBM LN18 cells): < 1000 nM
- Number of 372 kinases inhibited relative to Chk1 IC50 Within 10-fold [4]: 1
- Number of 372 kinases inhibited relative to Chk1 IC50 Within 100-fold [4]: 6
- IC50 (RSK4): 1960 nM

SMILES: N#Cc1cnc(Nc2cn(-c3ccc(N4CCC(N5CC6(CCC6)C5)C4)cc3)cn2)cn1 (single isomer, unassigned) [Example 132, 5-((1-(4-(3-(2-Azaspiro[3.3]heptan-2-yl)pyrrolidin-1-yl)phenyl)-1H-imidazol-4-yl)amino)pyrazine-2-carbonitrile]
- IC50 (human Chk2 kinase [5]): 1000 to 10000 nM

SMILES: CN(C)CC1CN(c2cccc(-n3cnc(Nc4cnc(C#N)cn4)c3)c2)CCO1 (single isomer, unassigned) [Example 108, 5-((1-(3-(2-((Dimethylamino)methyl)morpholino)phenyl)-1H-imidazol-4-yl)amino)pyrazine-2-carbonitrile]
- IC50 (human Chk1 kinase [3]): 10 to 31.6 nM
- IC50 (human Chk2 kinase [5]): 10000 to 100000 nM

SMILES: N#Cc1cnc(Nc2cn(-c3ccc(N4CCN5CCCC5C4)cc3)cn2)cn1 (single isomer, unassigned) [Example 118, 5-((1-(4-(Hexahydropyrrolo[1,2-a]pyrazin-2(1H)-yl)phenyl)-1H-imidazol-4-yl)amino)pyrazine-2-carbonitrile]
- IC50 (human Chk2 kinase [5]): > 100000 nM

SMILES: CN(C)C1CCCN(c2cccc(-n3cnc(Nc4cnc(C#N)cn4)c3)c2)C1 (single isomer, unassigned) [Example 112, 5-((1-(3-(3-(Dimethylamino)piperidin-1-yl)phenyl)-1H-imidazol-4-yl)amino)pyrazine-2-carbonitrile]
- IC50 (human Chk2 kinase [5]): 10000 to 100000 nM

SMILES: CN(C)[C@@H]1CCN(c2ccc(-n3cnc(Nc4cnc(C#N)cn4)c3)cc2)C1 [Example 12, (R)-5-((1-(4-(3-(Dimethylamino)pyrrolidin-1-yl)phenyl)-1H-imidazol-4-yl)amino)pyrazine-2-carbonitrile]
- IC50 (RSK1): > 10000 nM
- IC50 (RSK3): 4340 nM
- IC50 [2, 9]: < 1000 nM
- IC50 (RSK2): 6620 nM
- IC50 (human Chk1 kinase [3]): < 10 nM
- IC50 (GBM LN18 cells): < 1000 nM
- IC50 (RSK4): 9200 nM

SMILES: N#Cc1cnc(Nc2cn(-c3ccc(N4CCN(CCF)CC4)cc3)cn2)cn1 [Example 183, 5-((1-(4-(4-(2-Fluoroethyl)piperazin-1-yl)phenyl)-1H-imidazol-4-yl)amino)pyrazine-2-carbonitrile]
- IC50 (human Chk2 kinase [1]): 10000 to 100000 nM
- efflux ratio at 60 min, 1 μM (BCRP): 1.4
- IC50 (human Chk1 kinase [3]): 31.6 to 100 nM
- Papp A→B at 60 min, 1 μM (in vitro): 84 ×10⁻⁶ cm/s
- efflux ratio at 60 min, 1 μM [6]: 0.7

SMILES: CC1CN(C2CCN(c3ccc(-n4cnc(Nc5cnc(C#N)cn5)c4)cc3)C2)C1 (single isomer, unassigned) [Example 126, 5-((1-(4-(3-(3-Methylazetidin-1-yl)pyrrolidin-1-yl)phenyl)-1H-imidazol-4-yl)amino)pyrazine-2-carbonitrile]
- IC50 (human Chk2 kinase [1]): > 100000 nM
- Chk1 pIC50 (human Chk1 kinase [7]): D (D: 7.5-8.0)

SMILES: N#Cc1cnc(Nc2cn(-c3cccc(N4CCC(N)C(F)(F)C4)c3)cn2)cn1 (single isomer, unassigned) [Example 167, 5-((1-(3-(4-Amino-3,3-difluoropiperidin-1-yl)phenyl)-1H-imidazol-4-yl)amino)pyrazine-2-carbonitrile]
- IC50 (human Chk2 kinase [5]): > 100000 nM

SMILES: N#Cc1cnc(Nc2cn(-c3ccc(N4CCN(CCC(F)(F)F)CC4)cc3)cn2)cn1 [Example 184, 5-((1-(4-(4-(3,3,3-Trifluoropropyl)piperazin-1-yl)phenyl)-1H-imidazol-4-yl)amino)pyrazine-2-carbonitrile]
- IC50 (human Chk2 kinase [1]): > 100000 nM
- efflux ratio at 60 min, 1 μM (BCRP): 1.1
- IC50 (human Chk1 kinase [3]): 100 to 316 nM
- Papp A→B at 60 min, 1 μM (in vitro): 43 ×10⁻⁶ cm/s
- efflux ratio at 60 min, 1 μM [6]: 0.9

SMILES: CN(CCO)C1CCN(c2cccc(-n3cnc(Nc4cnc(C#N)cn4)c3)c2)C1 (single isomer, unassigned) [Example 110, 5-((1-(3-(3-((2-Hydroxyethyl)(methyl)amino)pyrrolidin-1-yl)phenyl)-1H-imidazol-4-yl)amino)pyrazine-2-carbonitrile]
- IC50 (human Chk2 kinase [1]): 10000 to 100000 nM
- Chk1 pIC50 (human Chk1 kinase [7]): D (D: 7.5-8.0)

SMILES: CN1CCC12CCN(c1ccc(-n3cnc(Nc4cnc(C#N)cn4)c3)cc1)C2 (single isomer, unassigned) [Example 128, 5-((1-(4-(1-Methyl-1,6-diazaspiro[3.4]octan-6-yl)phenyl)-1H-imidazol-4-yl)amino)pyrazine-2-carbonitrile]
- IC50 (human Chk2 kinase [5]): > 100000 nM

SMILES: CN1CCOC(c2ccc(-n3cnc(Nc4cnc(C#N)cn4)c3)cc2)C1 (single isomer, unassigned) [Example 106, 5-((1-(4-(4-Methylmorpholin-2-yl)phenyl)-1H-imidazol-4-yl)amino)pyrazine-2-carbonitrile]
- IC50 (human Chk2 kinase [5]): 10000 to 100000 nM

SMILES: COc1cc(C2(F)CCN(C)CC2)ccc1-c1cc(Nc2cnc(C#N)cn2)n[nH]1 [Comparator Ex. 4, 5-((5-(4-(4-Fluoro-1-methylpiperidin-4-yl)-2-methoxyphenyl)-1H-pyrazol-3-yl)amino)pyrazine-2-carbonitrile, reference compound]
- IC50 (RSK1): 329 nM
- IC50 (RSK3): 35 nM
- efflux ratio at 60 min, 1 μM (BCRP): 12
- IC50 (RSK2): 59 nM
- Papp A→B at 60 min, 1 μM (in vitro): 19 ×10⁻⁶ cm/s
- efflux ratio at 60 min, 1 μM [6]: 16
- IC50 (RSK4): 58 nM

SMILES: CC1(C)CN(C2CCN(c3ccc(-n4cnc(Nc5cnc(C#N)cn5)c4)cc3)C2)C1 (single isomer, unassigned) [Example 124, 5-((1-(4-(3-(3,3-Dimethylazetidin-1-yl)pyrrolidin-1-yl)phenyl)-1H-imidazol-4-yl)amino)pyrazine-2-carbonitrile]
- IC50 (human Chk2 kinase [1]): 1000 to 10000 nM
- Chk1 pIC50 (human Chk1 kinase [7]): D (D: 7.5-8.0)

SMILES: CN(C)[C@@H]1CCN(c2ccc(-n3cnc(Nc4cnc(C#N)cn4)c3)nc2)C1 [Example 50, (R)-5-((1-(5-(3-(Dimethylamino)pyrrolidin-1-yl)pyridin-2-yl)-1H-imidazol-4-yl)amino)pyrazine-2-carbonitrile]
- Kp uu at 0.25 h [8]: 0.5
- IC50 (RSK1): 4470 nM
- IC50 (RSK3): 1020 nM
- IC50 [2, 9]: < 1000 nM
- IC50 (RSK2): 6670 nM
- IC50 (GBM LN18 cells): < 1000 nM
- IC50 (RSK4): 3140 nM
